Strand notation (5' to 3'): a small letter for the sugar, then the base; units joined by * are phosphorothioate-linked, units joined directly phosphodiester-linked; [ ] holds rarer units or linkages, { } end groups; capitals alone tell only the bases. e = 2'-O-(2-methoxyethyl) (MOE); k = constrained ethyl (cEt); [5mC] = 5-methylcytosine; d = 2'-deoxy (DNA); m = 2'-O-methyl
Test system: Yap1 mRNA
Assay: Antisense inhibition of human Yap1 in SNU-449 cells by modified oligonucleotides, single dose (Example 5, RTS36584)
Type: cell-based
Details: Table 39; SNU-449 cells, 10,000 cells per well, free uptake, 2,000 nM oligonucleotide, approx. 48 hours; RTS36584; normalized to RIBOGREEN; Yap1 mRNA relative to untreated control
Method in brief: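 Values are % of untreated control: Yap1 mRNA by quantitative RT-PCR (RTS36584), normalized to RIBOGREEN total RNA. Oligonucleotides were dosed at 2,000 nM, free uptake, in SNU-449 cells, with roughly 48 h exposure before RNA isolation.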

| Substance | YAP1 (% UTC) |
| --- | --- |
| 1198381 (kT*dA*dG*dA*dG*dT*dA*dT*dG*dT*dG*kG*e[5mC]*kA*eA*kT; antisense) [Compound 1198381] | 19 |
| 1198416 (kA*dG*dA*dT*dT*dT*dA*dG*dG*dA*dT*kG*e[5mC]*kA*eT*kG; antisense) [Compound 1198416] | 29 |
| 1198394 (kT*dT*dT*dT*dA*d[5mC]*dA*dT*dT*dA*dG*kG*eA*kA*e[5mC]*kA; antisense) [Compound 1198394] | 63 |

Same assay, conditions: Table 40 (separate experiment); SNU-449 cells, 10,000 cells per well, free uptake, 2,000 nM oligonucleotide, approx. 48 hours; RTS36584; normalized to RIBOGREEN; Yap1 mRNA relative to untreated control

| Substance | YAP1 (% UTC) |
| --- | --- |
| 1198754 (kG*e[5mC]*kT*dT*dT*dG*dG*dA*dA*dG*dA*dT*e[5mC]*eT*kG*kA; antisense) [Compound 1198754] | 23 |
| 1198716 (kA*eA*kT*dT*dG*dT*d[5mC]*dT*d[5mC]*dA*dT*dG*e[5mC]*e[5mC]*kT*kT; antisense) [Compound 1198716] | 27 |
| 1198783 (antisense kA*eT*kG*dT*dA*dA*dT*dA*dT*dT*dG*d[5mC]*eA*eA*kT*k[5mC]) [Compound 1198783] | 78 |
| 1198726 (kT*eT*kA*dG*dA*dG*dT*dA*dT*dG*dT*dG*eG*e[5mC]*kA*kA; antisense) [Compound 1198726] | 28 |

Same assay, conditions: Table 41; SNU-449 cells, 10,000 cells per well, free uptake, 2,000 nM modified oligonucleotide, approximately 48 hours; RTS36584; normalized to RIBOGREEN; Yap1 mRNA relative to untreated control cells

| Substance | YAP1 (% UTC) |
| --- | --- |
| 1198773 (kA*e[5mC]*kT*d[5mC]*dT*dT*dA*dT*dA*dT*dG*dG*eT*eT*kT*kT; antisense) [Compound 1198773] | 58 |
| 1198633 (kG*kG*dA*dA*dA*dT*dT*dG*dT*d[5mC]*dT*d[5mC]*kA*eT*kG*e[5mC]; antisense) [Compound 1198633] | 46 |
| 1198651 (kT*kT*dA*d[5mC]*dA*dT*dT*dA*dG*dG*dA*dA*k[5mC]*eA*kA*eG; antisense) [Compound 1198651] | 94 |
| 1198657 (kA*kG*d[5mC]*dA*d[5mC]*dT*dT*dT*dT*dA*d[5mC]*dA*kT*eT*kA*eG; antisense) [Compound 1198657] | 95 |
| 1198644 (kT*kA*dT*dA*dT*dT*dA*dG*dA*dG*dT*dA*kT*eG*kT*eG; antisense) [Compound 1198644] | 73 |

Same assay, conditions: Table 43 experiment; SNU-449 cells, 10,000 cells per well, free uptake, 2,000 nM, approximately 48 hours; RTS36584; Yap1 mRNA normalized to RIBOGREEN, relative to untreated control cells

| Substance | YAP1 (% UTC) |
| --- | --- |
| 1198281 (kG*kA*d[5mC]*dT*dA*dA*dG*dT*dA*dA*dG*eG*eT*eT*kT*k[5mC]; antisense) [Compound 1198281] | 71 |
| 1198262 (kT*kG*dT*dA*dA*dT*dA*dT*dT*dG*d[5mC]*eA*eA*eT*k[5mC]*kT; antisense) [Compound 1198262] | 114 |
| 1198258 (kA*kT*dA*dT*dT*dG*d[5mC]*dA*dA*dT*d[5mC]*eT*eG*eT*k[5mC]*kT; antisense) [Compound 1198258] | 52 |

Same assay, conditions: Table 44 experiment; SNU-449 cells, 10,000 cells per well, free uptake, 2,000 nM, approximately 48 hours; RTS36584; Yap1 mRNA normalized to RIBOGREEN, relative to untreated control cells

| Substance | YAP1 (% UTC) |
| --- | --- |
| 1198488 (antisense kG*kG*dA*dA*dG*dA*dT*d[5mC]*dT*dG*dA*eA*kA*e[5mC]*kT*e[5mC]) [Compound 1198488] | 66 |
| 1198510 (k[5mC]*kT*d[5mC]*dT*dT*dA*dT*dA*dT*dG*dG*eT*kT*eT*kT*eG; antisense) [Compound 1198510] | 8 |

Same assay, conditions: Table 45; Yap1 mRNA as percent of untreated control, SNU-449 cells, single dose

| Substance | YAP1 (% UTC) |
| --- | --- |
| 1198972 (kA*k[5mC]*dT*dA*dA*dG*dT*dA*dA*dG*dG*kT*dT*kT*d[5mC]*k[5mC]; antisense) [Compound 1198972] | 46 |

Same assay, conditions: Table 46; Yap1 mRNA as percent of untreated control, SNU-449 cells, single dose

| Substance | YAP1 (% UT) |
| --- | --- |
| 1198855 (kT*kT*dA*dT*dA*dT*dG*dG*dT*dT*dT*kT*eG*kT*eG*kT; antisense) [Compound 1198855] | 30 |
| 1198864 (kA*kT*dA*dT*dT*dG*d[5mC]*dA*dA*dT*d[5mC]*kT*eG*kT*e[5mC]*kT; antisense) [Compound 1198864] | 56 |
| 1198806 (antisense kA*kA*dT*dT*dG*dT*d[5mC]*dT*d[5mC]*dA*dT*kG*e[5mC]*k[5mC]*eT*kT) [Compound 1198806] | 33 |
| 1198828 (kT*kT*dT*dT*dA*d[5mC]*dA*dT*dT*dA*dG*kG*eA*kA*e[5mC]*kA; antisense) [Compound 1198828] | 59 |
| 1198824 (kA*kG*dG*dT*dA*dT*dA*dA*d[5mC]*dT*dG*kG*eG*k[5mC]*eA*kA; antisense) [Compound 1198824] | 72 |

Same assay, conditions: Table 48; Yap1 mRNA level relative to untreated control; modified oligonucleotides targeting SEQ ID NO.: 1 and 2

| Substance | YAP1 (% UT) |
| --- | --- |
| 1197199 (antisense kA*kT*kA*dT*dG*dG*dT*dT*dT*dT*dG*dT*dG*kT*kG*kT) [Compound 1197199] | 75 |
| 1198291 (kA*kT*kG*dG*dA*dA*dA*dT*dT*dG*dT*d[5mC]*kT*e[5mC]*kA*eT; antisense) [Compound 1198291] | 58 |
| 1198343 (kA*kT*kT*dG*d[5mC]*dA*dA*dT*d[5mC]*dT*dG*dT*k[5mC]*eT*kG*eA; antisense) [Compound 1198343] | 39 |
| 1198347 (kG*kT*kA*dA*dT*dA*dT*dT*dG*d[5mC]*dA*dA*kT*e[5mC]*kT*eG; antisense) [Compound 1198347] | 14 |
| 1198346 (kT*kA*kA*dT*dA*dT*dT*dG*d[5mC]*dA*dA*dT*k[5mC]*eT*kG*eT; antisense) [Compound 1198346] | 40 |

Same assay, conditions: Table 49; Yap1 mRNA level relative to untreated control; modified oligonucleotides targeting SEQ ID NO.: 1 and 2

| Substance | YAP1 (% UT) |
| --- | --- |
| 1198570 (antisense kG*k[5mC]*kA*d[5mC]*dT*dT*dT*dT*dA*d[5mC]*dA*dT*kT*kA*kG*eG) [Compound 1198570] | 15 |
| 1198361 (kT*kA*kA*dG*dG*dT*dT*dT*d[5mC]*d[5mC]*d[5mC]*dA*kG*eA*kT*eT; antisense) [Compound 1198361] | 39 |
| 1198551 (antisense kA*kG*kT*dA*dT*dG*dT*dG*dG*d[5mC]*dA*dA*kT*kA*kA*eT) [Compound 1198551] | 34 |
| 1095547 (antisense kA*k[5mC]*kT*dG*dA*dG*dG*dT*dA*dT*dA*dA*k[5mC]*eT*kG*eG) [Compound 1095547] | 42 |
| 1198567 (antisense k[5mC]*kT*kT*dT*dT*dA*d[5mC]*dA*dT*dT*dA*dG*kG*kA*kA*e[5mC]) [Compound 1198567] | 54 |
| 1198575 (antisense kT*kT*kG*dG*dA*dA*dG*dA*dT*d[5mC]*dT*dG*kA*kA*kA*e[5mC]) [Compound 1198575] | 94 |
| 1198350 (kT*kA*kT*dG*dT*dA*dA*dT*dA*dT*dT*dG*k[5mC]*eA*kA*eT; antisense) [Compound 1198350] | 83 |

Same assay, conditions: Table 50; Yap1 mRNA remaining as percent of untreated control (UT), SNU-449 cells, single dose

| Substance | YAP1 (% UT) |
| --- | --- |
| 1198560 (antisense kT*kA*kT*dA*dA*d[5mC]*dT*dG*dG*dG*d[5mC]*dA*kA*kA*kT*eT) [Compound 1198560] | 53 % UT |
| 1197232 (antisense kA*kT*kA*dT*mG*dG*dA*dA*dA*dT*dT*dG*dT*k[5mC]*kT*k[5mC]) [Compound 1197232] | 55 % UT |
| 1197228 (antisense kA*kA*kT*dT*mG*dT*d[5mC]*dT*d[5mC]*dA*dT*dG*d[5mC]*k[5mC]*kT*kT) [Compound 1197228] | 25 % UT |
| 1198613 (antisense kA*kA*kA*dG*dT*dG*dT*dA*dT*dG*dT*d[5mC]*kA*kG*kA*eA) [Compound 1198613] | 3 % UT |
| 1198610 (antisense kT*kG*kT*dA*dT*dG*dT*d[5mC]*dA*dG*dA*dA*kG*kA*kG*eT) [Compound 1198610] | TksGksTksAdsTdsGdsTds^mCdsAdsGds4 % UT |
| 1197236 (antisense kT*kA*kT*dT*mA*dG*dA*dG*dT*dA*dT*dG*dT*kG*kG*k[5mC]) [Compound 1197236] | 17 % UT |

Same assay, conditions: Table 51; Yap1 mRNA remaining as percent of untreated control (UT), SNU-449 cells, single dose

| Substance | YAP1 (% UT) |
| --- | --- |
| 1197252 (antisense k[5mC]*kT*kT*dT*mG*dG*dA*dA*dG*dA*dT*d[5mC]*dT*kG*kA*kA) [Compound 1197252] | 53 |
| 1200794 (kA*kG*kA*dG*dT*mA*dT*dG*dT*dG*dG*d[5mC]*dA*kA*kT*kA; antisense) [Compound 1200794] | 18 |
| 1197254 (antisense kT*kT*kA*dG*mG*dA*dT*dG*d[5mC]*dA*dT*dG*dG*kT*kT*kT) [Compound 1197254] | 51 |
| 1197311 (kT*kT*kT*dA*mU*dG*dT*dA*dA*dT*dA*dT*dT*kG*k[5mC]*kA; antisense) [Compound 1197311] | 27 |

Same assay, conditions: Table 52; Yap1 mRNA, modified oligonucleotides targeting SEQ ID NO: 1 and 2

| Substance | YAP1 (% UT) |
| --- | --- |
| 1200864 (kA*kA*k[5mC]*dT*dT*mU*dA*dA*dA*dG*dT*dG*dT*kA*kT*kG; antisense) [Compound 1200864] | 84 |
| 1200789 (G_{ks}G_{ks}A_{ks}A_{ds}A_{ds}U_{ys}T_{ds}G_{ds}T_{ds}^{m}C_{ds}T_{ds}^{m}C_{ds}A_{ds}T_{ks}G_{ks}^{m}C_{k}; antisense; as printed in the source, key not given here) [Compound 1200789] | 12 |

Same assay, conditions: Yap1 mRNA, percent of untreated control; modified oligonucleotides targeting SEQ ID NO: 1 and 2; Table 47

| Substance | YAP1 (% UT) |
| --- | --- |
| 1197194 (antisense kT*kT*kA*dG*dG*dA*dT*dG*d[5mC]*dA*dT*dG*dG*kT*kT*kT) [Compound 1197194] | 37 |
